According to patent US8932594B2, “Adjuvants and methods of use” (The Scripps Research Institute, priority 2006, dated 2015):

Assays:
[1] = molecular target: T1, CD1d (Mus musculus, UniProt P11609); assay: Loading of CD1d molecules, native isoelectric focusing (IEF) gel assay; type: binding; settings: 2 μM CD1d, 20 μM lipid, 1 hour at 37° C., no saposin B
T1 sequence (P11609 19-297 limits assumed): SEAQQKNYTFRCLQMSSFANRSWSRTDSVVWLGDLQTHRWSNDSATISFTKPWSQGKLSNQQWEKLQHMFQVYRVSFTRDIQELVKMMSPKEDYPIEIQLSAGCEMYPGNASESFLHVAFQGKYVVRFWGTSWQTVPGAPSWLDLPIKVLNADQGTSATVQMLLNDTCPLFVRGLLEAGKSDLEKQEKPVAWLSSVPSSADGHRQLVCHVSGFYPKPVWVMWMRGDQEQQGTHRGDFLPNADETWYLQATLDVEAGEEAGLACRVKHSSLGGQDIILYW
T1 sequence (P01887 21-119 partner): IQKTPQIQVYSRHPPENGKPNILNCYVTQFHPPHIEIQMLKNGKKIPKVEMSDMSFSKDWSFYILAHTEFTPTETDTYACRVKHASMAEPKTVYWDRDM
Description: Whether PBS-31 and PBS-32 could be efficiently loaded onto CD1d molecules was tested using a native isoelectric focusing (IEF) gel assay in the presence and absence of saposin B. For comparison, PBS-41 and PBS-46 (sulfo-β-galactosylceramides), PBS-36 and PBS-58 (sulfo-α-glucosylceramides) and PBS-35 and PBS-40 (β-glucosylceramides) were also evaluated in this assay.
Each 5 μl reaction contained 2 μM CD1d, 20 μM lipid and 10 μM saposin B. Reactions were incubated for 1 hour at 37° C. prior to gel loading.
Loaded species are indicated by a star in FIG. 3. The lanes of FIG. 3 were loaded as follows: 1, no lipid; 2, αGalCer; 3, PBS-31; 4, PBS-32; 5, no lipid; 6, iGB3; 7, PBS-40; 8, PBS-41; 9, PBS-35; 10, PBS-46; 11, PBS-58; 12, PBS-25 (positive control).

[2] = test system: DN32.D3 cells; assay: DC-free assay: plate-coated murine CD1d, DN32.D3 cells, IL-2 production; type: cell-based; settings: for requirement of processing by DCs for stimulation of NKT cells: plate-coated murine CD1d, with saposin B, 24 hours, data not shown
Description: To determine whether presentation of PBS-31 and PBS-32 to NKT cells was dependent on processing by DCs, a DC-free assay was used in which murine CD1d was coated on 96 well plates. PBS-31, PBS-32 and control compounds were added at various concentrations in the presence and absence of saposin B. DN32.D3 cells were added and supernatants were harvested after 24 hours and production of IL-2 was measured.

[3] = test system: NKT cells; assay: Cytokine production by stimulated NKT cells (splenocytes), ELISA; type: cell-based; settings: 24 hours incubation with splenocytes
Description: NKT cells were stimulated with PBS-32 or control compounds presented by plate-bound CD1d, splenocytes or purified mature DCs. Production of IFN-γ, IL-4, IL-10 and GM-CSF was measured by ELISA. […] The control lipids (glucosyl and galactosyl) were negative in the same assays. Cytokine induction was CD1d-dependent because induction was blocked by anti-CD1d antibodies and no cytokine induction was observed when DCs from CD1d^−/− mice were used (data not shown).

[4] = test system: human NKT cell line; assay: Activation of human NKT cell line, IL-4 and IFN-γ ELISA; type: cell-based; settings: 24 hours incubation with PBLs or matured DCs
Description: The agonistic activity of PBS-31 and PBS-32 was examined for human NKT cells. A human NKT cell line was stimulated with irradiated peripheral blood lymphocytes (PBLs) or in vitro matured DCs in the presence of PBS-31, PBS-32 and control lipid, iGB3. (Mattner et al., Nature 434: 525-529 (2005) incorporated herein by reference in its entirety.) After 24 hours incubation, supernatants were harvested and assayed for the presence of IL-4 and IFN-γ by ELISA.

[5] = test system: CD1d-restricted Vα14 NKT hybridoma cell, DN32.D3; assay: Stimulation of NKT hybridoma DN32.D3 by lipid-pulsed APCs, IL-2 release; type: cell-based, mice; settings: for presentation by DCs isolated from CD1-TD mice: DCs with disrupted cytoplasmic tail of CD1d, data not shown; for presentation by splenocytes to DN32.D3 (IL-2 release): irradiated splenocytes, 24 hours
Description: Compounds PBS-31, PBS-32, and control lipids were evaluated for their ability to stimulate a canonical CD1d-restricted Vα14 NKT hybridoma cell, DN32.D3 in an assay described by Lantz, et al., J. Exp. Med. 180: 1097-1106 (1994). Irradiated splenocytes were pulsed with decreasing concentrations of the lipids and control compounds, and incubated with DN32.D3 cells for 24 hours. Supernatants were harvested and IL-2 release was measured using a [^3H]-thymidine incorporation assay with an IL-2 dependent cell line as described by Cantu, et al., J. Immunol. 170:4673-4682 (2003).
Similar results were obtained when mature DCs were used as the APCs (data not shown). […] Therefore, presentation of PBS-31 and PBS-32 and concomitant stimulation of NKT cells is dependent on lysosomal targeting of CD1d.

[6] = test system: splenic DCs; assay: Induction of DC maturation in vivo, FACS of splenic cells; set-up: species or system mice; settings: for DC phenotype (CD40, CD80, CD86, MHC class II expression): CD11c+/CD8+ and CD11c+/CD8− cells
Description: Mice were injected with α-GalCer, PBS-31 and PBS-32 and DC differentiation was examined in splenic DCs by analyzing cell surface marker expression.
Three mice in each group were injected intravenously with 1 μg lipid or vehicle alone. At 24 hours post-injection, CD1d expression was examined on splenic B cells (B220+), macrophages (CD11b+) and DCs (CD11c+) by FACS analysis using a FACScalibur machine and FlowJo analysis software.
The maturation of DCs was analyzed by measuring expression of CD40, CD80, CD86, and MHC class II on CD11c^+/CD8^+ and CD11c^+/CD8^− cells (FIG. 8). […] PBS-32 and αGalCer reached maximal induction between 0.1 and 1 μg (data not shown).
Induction of DC maturation was unaffected in MyD88^−/− and MyD88^−/−TRIF^−/− knock out animals in which the Toll-like receptor pathway is partially, or totally impaired, respectively (data not shown). The CD1d-dependence was confirmed by injecting CD1d^−/− mice with the lipids.

[7] = test system: lymphocytic choriomeningitis virus (LCMV); type: in vivo, C57BI/6 mice; settings: 1 μg intravenous before 10^6 PFU LCMVArm, day 8 post-infection, intracellular IFN-γ
[8] = test system: ovalbumin-specific CD8+ T cell and IgG responses; assay: Adjuvant capability with ovalbumin antigen; type: in vivo, mice; settings: for H-2Kb/ova257-264 tetramer positive cells in the CD8+ T cell pool: ovalbumin plus 1 μg lipid intravenous, peripheral blood, day 7 post-injection; for IgG anti-ovalbumin response: ovalbumin plus lipid, ELISA, compared to control group
Description: The potential adjuvanticity of PBS-31 and PBS-32 combined with a nominal protein antigen, ovalbumin, was conducted following a protocol similar to that of Fujii et al., J. Exp. Med. 198: 267-279 (2003) and Hermans et al., J. Immunol. 171: 5140-5147 (2003), which are incorporated herein by reference in their entireties. Ovalbumin was injected intravenously either alone or in combination with 1 μg of PBS-31, PBS-32 or PBS-57. […] In the absence of working tetramers to follow MHC class II responses, only CD8+ responses and B cell responses were evaluated.
CD8+ T cell responses were evaluated by enumerating the H-2K^b/ova257-264 tetramer positive cells in peripheral blood at 7 days post-injection and are expressed as the percentage H-2K^b/ova257-264 positive cells in the CD8+ T cell pool. At day 7 post-injection, antigen-specific H-2K^b/ova257-264 tetramer positive cells were increased to about 3% in the PBS-32 injected group whereas they expanded to almost 6% in the PBS-57 treated group (FIG. 9A). […] These strong IgG responses may indirectly reflect a significant boost of the ovalbumin-specific CD4+T helper compartment as well.
When CD1d^−/− mice were injected following the same protocol, no increase in either anti-ovalbumin IgG or in the anti-ovalbumin CD8+ T cells were noted (data not shown).

[9] = test system: murine Vα14 NKT cell line; assay: Lipid-loaded CD1d tetramer staining of NKT cell line, FACS; type: binding; settings: lipid-loaded CD1d tetramers; data not shown
Description: PBS-32-loaded CD1d tetramers, as well as control αGalCer tetramers, were prepared as described in Benlagha et al., J. Exp. Med. 191: 1895-1903 (2000) incorporated herein by reference in its entirety. The resulting tetramers were used to stain a murine Vα14 NKT cell line. After washing, the cells were analyzed on a FACSCalibur (BD Biosciences) using FlowJo software.

[10] = test system: C57BI/6 mice; assay: Serum cytokines after intravenous injection, ELISA; type: in vivo; settings: 1 μg intravenous
Description: In vivo, following intravenous injection of 1 μg of positive control compound, αGalCer, or PBS-32, IFN-γ production in the serum of C57BI/6 mice was measured by ELISA and was very similar for both compounds (2500 pg/ml and 1500 pg/ml at 24 hours, respectively). IL-4 was undetectable following PBS-32 injection. […] At eight hours post-injection, PBS-32 induced 600 pg/ml IFN-γ.

[11] = molecular target: Vα14/2Cβ TCR; settings: previously reported, Cantu et al. 2003; read-out: affinity of the TCR for CD1d-lipid complex; cited from earlier work

CCCCCCCCCCCCCC[C@@H](O)[C@@H](O)[C@H](CO[C@H]1O[C@H](CO)[C@H](O)[C@H](O)[C@H]1O)NC(=O)CCCCCCC [PBS-25]
loading of CD1d in the absence of saposin B [1]: marginally loaded in the absence of saposin B

CCCCCCCCCCCCCCCCCCCCCCCCCC(=O)NC(COC1OC(CO)C(O)C(OS(=O)(=O)O)C1O)C(O)C(O)CCCCCCCCCCCCCC (centres unmarked) [PBS-31]
requirement of processing by DCs for stimulation of NKT cells [2]: does not require processing by DCs | GM-CSF secretion [3]: induced only GM-CSF | IFN-γ secretion [3]: induced only GM-CSF | IL-4 secretion [3]: induced only GM-CSF | IL-10 secretion [3]: induced only GM-CSF | IFN-γ secretion [4]: significantly less | IL-4 secretion [4]: almost equivalent amounts | presentation by DCs isolated from CD1-TD mice [5]: inefficient at presenting | presentation by splenocytes to DN32.D3 (IL-2 release) [5]: efficiently presented | DC maturation effect relative to the other lipids ([6]; 1 μg intravenous, 24 hours): less pronounced effect | DC phenotype (CD40, CD80, CD86, MHC class II expression) ([6]; 1 μg intravenous, 24 hours): mature phenotype | lesser potency on DC maturation at increased doses ([6]; doses up to 50 μg per mouse, data not shown): could not be overcome

CCCCCCCCCCCCC/C=C/[C@@H](O)[C@H](CO[C@@H]1O[C@H](CO)[C@@H](O)[C@H](OS(=O)(=O)O)[C@H]1O)NC(=O)CCCCCCCCCCCCCCCCCCCCCCCCC [PBS-32, sulfoglucosylceramide]
relative potency in IL-2 production [2]: consistently more potent than phytoceramide PBS-31 | requirement of processing by DCs for stimulation of NKT cells [2]: does not require processing by DCs | anti-LCMV CD4+ T cell response (GP61, NP309) [7]: significant increase | anti-LCMV CD8+ T cell response (GP33, NP396, GP276) [7]: did equally well | adjuvant activity with purified protein antigen ([8]; in combination with ovalbumin): had adjuvant activity | H-2Kb/ova257-264 tetramer positive cells in the CD8+ T cell pool [8]: about 3% | IgG anti-ovalbumin response [8]: dramatically boosted | GM-CSF secretion [3]: induced secretion | IFN-γ secretion [3]: induced secretion | IL-4 secretion [3]: induced secretion | IL-10 secretion [3]: not IL-10 | IFN-γ secretion [4]: able to induce | IL-4 secretion [4]: almost equivalent amounts | tetramer staining intensity [9]: less intense than for CD1d-αGalCer tetramers but homogenous | IL-4 in serum [10]: undetectable | timing of IFN-γ production [10]: earlier IFN-γ production than α-GalCer | IFN-γ production in the serum ([10]; at 24 hours): 1500 pg/mL | IFN-γ production in the serum ([10]; eight hours post-injection): 600 pg/mL | presentation by DCs isolated from CD1-TD mice [5]: inefficient at presenting | presentation by splenocytes to DN32.D3 (IL-2 release) [5]: efficiently presented | DC phenotype (CD40, CD80, CD86, MHC class II expression) ([6]; 1 μg intravenous, 24 hours): mature phenotype

CCCCCCCCCCCCCCCCCCCCCCCCCC(=O)NC(COC1OC(CO)C(O)C(OS(=O)(=O)O)C1O)C(O)C(O)CCCCCCCCCCCCCC (centres unmarked) [PBS-36]
loading of CD1d in the absence of saposin B [1]: loaded onto CD1d in the absence of saposin B

CCCCCCCC/C=C\CCCCCCCCCCCCCC(=O)N[C@@H](CO[C@H]1O[C@H](CNC(C)=O)[C@H](O)[C@H](O)[C@H]1O)[C@H](O)[C@H](O)CCCCCCCCCCCCCC [PBS-57, reference compound]
H-2Kb/ova257-264 tetramer positive cells in the CD8+ T cell pool [8]: ~6% | IgG anti-ovalbumin response [8]: dramatically boosted

CCCCCCCCCCCCC/C=C/[C@@H](O)[C@H](CO[C@H]1O[C@H](CO)[C@@H](O)[C@H](OS(=O)(=O)O)[C@H]1O)NC(=O)CCCCCCCCCCCCCCCCCCCCCCCCC [PBS-58]
loading of CD1d in the absence of saposin B [1]: marginally loaded in the absence of saposin B

CCCCCCCCCCCCCCCCCCCCCCCCCC(=O)N[C@@H](CO[C@H]1O[C@H](CO)[C@H](O)[C@H](O)[C@H]1O)[C@H](O)[C@H](O)CCCCCCCCCCCCCC [αGalCer, α-galactosylceramide, reference compound]
anti-LCMV CD4+ T cell response (GP61, NP309) [7]: unchanged | anti-LCMV CD8+ T cell response (GP33, NP396, GP276) [7]: significantly increase | IFN-γ production in the serum ([10]; at 24 hours): 2500 pg/mL | Kd [11]: 30 nM | DC phenotype (CD40, CD80, CD86, MHC class II expression) ([6]; 1 μg intravenous, 24 hours): mature phenotype

isoglobotrihexosylceramide [iGB3, reference compound]
IL-4 secretion [4]: almost equivalent amounts
